Data as given in US5989596A, “Compositions comprising a depigmenting agent consisting of sulfites and metabisulfites and plant extracts for use in inhibiting melanogenesis or for depigmenting” (Coletica, priority 1997, dated 1999).

Experiments:
[1] = molecular target: T1, endogenous tyrosinase in melanocytes of human skin explants (Homo sapiens, UniProt P14679); test: Ex vivo tissue model on human skin explant, histochemical L-DOPA reaction (anti-tyrosinase activity); type: cell-based; settings: 0.55% (w/v), with L-DOPA 0.05 M, 15 hours at 37° C.
T1 construct: oxidation of exogenous L-DOPA by endogenous tyrosinase; from tissue; host or cells: human abdominal skin explants from plastic surgery (melanocytes)
T1 sequence (P14679 19-529): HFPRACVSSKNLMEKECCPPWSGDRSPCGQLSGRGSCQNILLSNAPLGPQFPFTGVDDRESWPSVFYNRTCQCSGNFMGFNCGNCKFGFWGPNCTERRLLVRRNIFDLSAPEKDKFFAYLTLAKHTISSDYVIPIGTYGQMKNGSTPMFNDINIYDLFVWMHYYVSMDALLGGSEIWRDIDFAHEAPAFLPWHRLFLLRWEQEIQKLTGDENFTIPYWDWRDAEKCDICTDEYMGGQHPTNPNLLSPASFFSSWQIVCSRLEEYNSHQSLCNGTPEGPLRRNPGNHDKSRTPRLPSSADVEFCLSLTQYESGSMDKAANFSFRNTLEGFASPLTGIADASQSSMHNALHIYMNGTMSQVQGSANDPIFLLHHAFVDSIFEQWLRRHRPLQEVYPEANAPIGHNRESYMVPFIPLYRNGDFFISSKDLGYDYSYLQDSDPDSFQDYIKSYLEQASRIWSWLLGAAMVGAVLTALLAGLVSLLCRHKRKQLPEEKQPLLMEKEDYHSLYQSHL
Method: The oxidation of L-Dopa by the tyrosinase produces, in the melanocytes, a black pigment precursor of melanin which is easily detectable by optical microscopy with white light. The tyrosinase activity is determined by the intensity of the calorimetric reaction obtained.
A positive control and a negative control are also carried out in parallel.
The various products in the study are incubated in the presence of L-DOPA (0.05 M) for 15 hours at 37° C.
After fixing and inclusion in paraffin, the sections are colored with hemalun/eosin/saffron and with cresyl violet, they are then observed in white light by optical microscopy.
The tyrosinase activity is determined by the intensity of the calorimetric reaction obtained.

[2] = test system: human melanocytes; settings: J. Soc. Cosmeti. Chem. 42, 361-368 (1991); cited from earlier work
[3] = test system: isolated tyrosinase; test: In vitro test of the inhibition of isolated tyrosinase (rate of dopachrome formation from L-Dopa, 475 nm); type: biochemical
Description: It is known that tyrosinase is capable of catalyzing the formation of L-Dopaquinone and then dopachrome from L-Dopa. Now, dopachrome is a colored compound whose appearance is possible to follow by UV visible spectrophotometry at 475 nm. The use of an active capable of modifying the enzymatic activity manifests itself by a variation of the rate of appearance of this colored molecule.
The ratio of the rates of formation of dopachrome enable precisely determining the activations or the inhibitions obtained with the different molecules tested.
The anti-tyrosinase activity was measured, for various concentrations of this composition, by simple dilution with demineralized water.

[4] = Organoleptic (smell) and stability tests on storage, 4 weeks at 45° C.; type: physicochemical; settings: pH 6.5, 4 weeks at 45° C.
Method: Organoleptic tests have even been carried out on 5% sodium sulfite solutions or with 10% of a mulberry extract or 10 or with 20% with a lemon extract. These tests were led over 4 weeks at 45° C. at pH 5.5 and 6.5.
Also, organoleptic tests are then carried out on 5% sodium metabisulfite solutions with or without either 20% of a saxifrage extract or 10% of a grapefruit extract. These tests were led over 4 weeks at 45° C. at pH 5.5 and 6.5.
Organoleptic tests were also carried out on 5% potassium sulfite solutions with or without either 20% of a grape extract, or 10% of an oughon extract. It is to be noted that oughon is also called Scutelaria. These tests were led over 4 weeks at 45° C. at pH 5.5 and 6.5.
Organoleptic tests are then carried out on 5% potassium metabisulfite solutions with or without either 10% of a saxifrage extract, or 5% of an oughon extract +10% of a grapefruit extract. These tests were also led over 4 weeks at 45° C. at pH 5.5 and 6.5.

| SMILES | inhibition of the formation of melanic pigments [1] | IC50 (concentration for which half of the cells placed in culture are no longer living) [2] | tyrosinase inhibition (in words) ([3]; concentration 0.01%) | Results (inhibition) of tyrosinase ([3]; concentration level 0.1%) | Results (inhibition) of tyrosinase ([3]; concentration level 1%) | Results (inhibition) of tyrosinase ([3]; concentration level 10%) | smell (organoleptic test) [4] | Results (inhibition) of tyrosinase ([3]; concentration level 0.01%) |
| --- | --- | --- | --- | --- | --- | --- | --- | --- |
| Oc1ccc(O)cc1 [hydroquinone] | totally inhibits | – | – | – | – | – | – | – |
| O=C1O[C@H]([C@@H](O)CO)C(O)=C1O [ascorbic acid] | – | 880 µg/mL | – | – | – | – | – | – |
| O=S([O-])S(=O)(=O)[O-].[Na+].[Na+] [sodium metabisulfite] | – | – | almost total | 100% | 100% | 100% | very strong smell | – |
| O=S([O-])S(=O)(=O)[O-].[K+].[K+] [potassium metabisulfite] | – | – | – | 93.63% | 100% | 100% | – | more than 90% |
| O=S([O-])[O-].[K+].[K+] [potassium sulfite] | – | – | – | 98.10% | 92.7% | 100% | very strong smell | more than 80% |
| O=S([O-])[O-].[Na+].[Na+] [sodium sulfite] | – | – | – | 100% | 100% | 100% | – | 93.7% |
